Laboratory results taken from patent US20230302150A1, “ANTIBODY-TLR AGONIST CONJUGATES, METHODS AND USES THEREOF” (Ambrx, Inc., priority 2020, published 2023).
Like-named read-outs stand apart in the source and are kept apart here.

Target: T1, hTLR7 (Homo sapiens, UniProt Q9NYK1)
T1 construct: expressed in transfected cells; host or cells: HEK-Blue hTLR7 reporter cell line
T1 sequence (Q9NYK1 27-1049): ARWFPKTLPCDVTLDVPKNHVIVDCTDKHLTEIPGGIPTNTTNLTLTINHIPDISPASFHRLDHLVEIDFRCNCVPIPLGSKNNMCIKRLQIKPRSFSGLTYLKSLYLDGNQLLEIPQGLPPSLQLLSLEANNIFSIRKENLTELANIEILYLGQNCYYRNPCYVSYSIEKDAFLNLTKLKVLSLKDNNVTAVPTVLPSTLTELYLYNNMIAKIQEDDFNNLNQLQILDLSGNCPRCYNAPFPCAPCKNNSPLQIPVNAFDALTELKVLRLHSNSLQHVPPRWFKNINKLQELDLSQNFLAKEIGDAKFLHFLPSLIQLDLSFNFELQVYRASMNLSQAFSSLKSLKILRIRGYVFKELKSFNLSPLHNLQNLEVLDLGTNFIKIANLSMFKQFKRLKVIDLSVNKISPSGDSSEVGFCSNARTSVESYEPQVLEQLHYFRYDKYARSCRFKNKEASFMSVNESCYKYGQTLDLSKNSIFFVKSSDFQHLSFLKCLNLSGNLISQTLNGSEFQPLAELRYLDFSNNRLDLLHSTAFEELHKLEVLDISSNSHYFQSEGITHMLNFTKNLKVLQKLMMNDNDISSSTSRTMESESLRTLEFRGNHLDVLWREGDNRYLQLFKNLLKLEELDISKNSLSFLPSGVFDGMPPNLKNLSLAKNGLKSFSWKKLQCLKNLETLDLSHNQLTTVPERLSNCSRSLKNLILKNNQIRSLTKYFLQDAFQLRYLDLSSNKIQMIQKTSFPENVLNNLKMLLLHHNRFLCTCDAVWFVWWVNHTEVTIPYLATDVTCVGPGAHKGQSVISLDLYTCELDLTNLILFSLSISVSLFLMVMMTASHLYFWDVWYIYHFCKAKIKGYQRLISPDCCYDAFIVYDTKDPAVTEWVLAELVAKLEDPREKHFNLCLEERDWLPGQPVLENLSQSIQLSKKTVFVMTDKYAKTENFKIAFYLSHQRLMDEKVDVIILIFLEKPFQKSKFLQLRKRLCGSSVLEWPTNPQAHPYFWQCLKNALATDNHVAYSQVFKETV
Assay: HEK-Blue hTLR7 reporter assay (NF-kB-induced SEAP, Quanti-Blue)
Type: cell-based
Conditions: read-out: EC50
Method: HEK-Blue™ hTLR7 cells were incubated in HEK-Blue™ Detection medium and stimulated with increasing concentrations of TLR7 or TLR8 or TLR7/8 agonists. […] The EC50 was determined from dose-response curve using Prism Software.

[1] = Table 19, TLR7, drug-linkers with PEG shielding
[2] = Core 3 compounds, assay not given

Structure (SMILES) | EC50 [1] | EC50 [2]
CCCCOc1nc(N)c2[nH]c(=O)n(Cc3ccc(CN4CCC(CCNC(=O)[C@H](Cc5ccc(OP(=O)(O)O)cc5)NC(=O)CON)CC4)cc3)c2n1 [AXC-960, (S)-4-(3-((2-(1-(4-((6-amino-2-butoxy-8-oxo-7,8-dihydro-9H-purin-9-yl)methyl)benzyl)piperidin-4-yl)ethyl)amino)-2-(2-(aminooxy)acetamido)-3-oxopropyl)phenyl dihydrogen phosphate] | 267 nM | 
CCCCOc1nc(N)c2[nH]c(=O)n(Cc3ccc(CN4CCC(CCNC(=O)[C@@H](CCCCNC(=O)CCCC(=O)NCCOCCOCCOCCOCCC(=O)NC(COCCC(=O)NCCOCCOCCOCCOCCOCCOCCOCCOC)(COCCC(=O)NCCOCCOCCOCCOCCOCCOCCOCCOC)COCCC(=O)NCCOCCOCCOCCOCCOCCOCCOCCOC)NC(=O)CON)CC4)cc3)c2n1 [AXC-961, (R)-N1-(6-((2-(1-(4-((6-amino-2-butoxy-8-oxo-7,8-dihydro-9H-purin-9-yl)methyl)benzyl)piperidin-4-yl)ethyl)amino)-5-(2-(aminooxy)acetamido)-6-oxohexyl)-N5-(dPEG4)-(mPEG8)3-glutaramide] | 856 nM | 
CCCCOc1nc(N)c2[nH]c(=O)n(Cc3ccc(CN4CCC(CCNC(=O)[C@@H](CCCCNC(=O)CCOCCOCCOCCOCCOCCOCCOCCOC)NC(=O)CON)CC4)cc3)c2n1 [AXC-962, (R)—N-(2-(1-(4-((6-amino-2-butoxy-8-oxo-7,8-dihydro-9H-purin-9-yl)methyl)benzyl)piperidin-4-yl)ethyl)-2-(2-(aminooxy)acetamido)-6-(PEG8)amidohexanamide] | 453 nM | 
CCCCCC(=O)Nc1nc(OCCCC)nc2c1[nH]c(=O)n2Cc1ccc(CN2CCC(CCN)CC2)cc1 [AXC-963, N-(9-(4-((4-(2-aminoethyl)piperidin-1-yl)methyl)benzyl)-2-butoxy-8-oxo-8,9-dihydro-7H-purin-6-yl)hexanamide] | 19.4 nM | 
CCCCOc1nc(NC(C)=O)c2[nH]c(=O)n(Cc3ccc(CN4CCC(CCN)CC4)cc3)c2n1 [AXC-964, N-(9-(4-((4-(2-aminoethyl)piperidin-1-yl)methyl)benzyl)-2-butoxy-8-oxo-8,9-dihydro-7H-purin-6-yl)acetamide] | 10.3 nM | 
CCCCCC(=O)Nc1nc(OCCCC)nc2c1[nH]c(=O)n2Cc1ccc(CN2CCC(CCNC(=O)CON)CC2)cc1 [AXC-965, N-(9-(4-((4-(2-(2-(aminooxy)acetamido)ethyl)piperidin-1-yl)methyl)benzyl)-2-butoxy-8-oxo-8,9-dihydro-7H-purin-6-yl)hexanamide] | 48.3 nM | 
CCCCOc1nc(NC(C)=O)c2[nH]c(=O)n(Cc3ccc(CN4CCC(CCNC(=O)CON)CC4)cc3)c2n1 [AXC-966, N-(2-(1-(4-((6-acetamido-2-butoxy-8-oxo-7,8-dihydro-9H-purin-9-yl)methyl)benzyl)piperidin-4-yl)ethyl)-2-(aminooxy)acetamide] | 65.5 nM | 
CC(C)(C)OC(=O)NCCC1CCN(Cc2ccc(Cn3ccc4c5nc(N)ncc5ccc43)cc2)CC1 [AXC-968, tert-butyl (2-(1-(4-((2-amino-7H-pyrrolo[2,3-h]quinazolin-7-yl)methyl)benzyl)piperidin-4-yl)ethyl)carbamate] |  | > 10000 nM
NCCC1CCN(Cc2ccc(Cn3ccc4c5nc(N)ncc5ccc43)cc2)CC1 [AXC-969, 7-(4-((4-(2-aminoethyl)piperidin-1-yl)methyl)benzyl)-7H-pyrrolo[2,3-h]quinazolin-2-amine] |  | > 10000 nM
NOCC(=O)NCCC1CCN(Cc2ccc(Cn3ccc4c5nc(N)ncc5ccc43)cc2)CC1 [AXC-970, N-(2-(1-(4-((2-amino-7H-pyrrolo[2,3-h]quinazolin-7-yl)methyl)benzyl)piperidin-4-yl)ethyl)-2-(aminooxy)acetamide] |  | > 10000 nM
CCCCOc1nc(NC(C)=O)c2[nH]c(=O)n(Cc3ccc(CN4CCC(CCON)CC4)cc3)c2n1 [AXC-978, N-(9-(4-((4-(2-(aminooxy)ethyl)piperidin-1-yl)methyl)benzyl)-2-butoxy-8-oxo-8,9-dihydro-7H-purin-6-yl)acetamide] | 28.9 nM | 
